Reference: patent US4892887A, “N,N'-bis(sulfonyl)hydrazines having antineoplastic activity” (Yale University, priority 1988, dated 1990)
Like-named read-outs stand apart in the source and are kept apart here.

Key:
[1] = system: B16 melanoma; assay: Survival time of mice bearing the B16 melanoma; format: in vivo, mouse (C57B1 mice); conditions: for Max. % T/C: Table IV, B16, at optimum effective daily dose; for Av. Change in wt., %: at optimum effective daily dose, B16 mice; for dosage range of activity against the B16 melanoma: B16 melanoma in mice
Protocol: This tumor was propagated in C57B1mice. Transplantation was carried out by removing tumors from donor mice bearing 14-day subcutaneous tumor growths. The tissue was fragmented to make a well-dispersed cellular suspension and diluted with Fischer's medium without serum so that one gram of tissue was suspended in 5 ml of solution. A portion (0.2 ml) of the resulting cell suspension was injected intraperitoneally into each recipient animal. All compounds were administered over a wide range of dosage levels by intraperitoneal injection, beginning 24 hours after tumor implantation, once daily for 6 consecutive days. The test compounds were injected as fine suspensions following homogenization in 2 to 3 drops of 20% aqueous Tween 80 and then made up to volume with isotonic saline. […] Mice were weighed during the course of the experiments, and the percent change in body weight from onset to termination of therapy was used as an indication of drug toxicity. Determination of the sensitivity of neoplasms to these agents was based on the prolongation of survival time afforded by the drug treatments.
^a Administered once daily for six consecutive days, beginnign 24
hours after tumor transplanation, with 5 animals being used per group.
^b Average change in body weight from onset to termination of therapy
^c % T/C = average survival time of treated/control animals ×
100. Each value represents the average of 5 animals per group.

[2] = system: Sarcoma 180; assay: Survival time of mice bearing Sarcoma 180; format: in vivo, mouse (CDF-1 mice)
Protocol: (§1) The tumor-inhibitory properties of compounds 1-12 were determined by measuring their effects on the survival time of mice bearing the L1210 leukemia and in some cases Sarcoma 180, and the P388 leukemia. The ascites cell forms of the L1210 leukemia, Sarcoma 180 and P388 leukemia were propagated in CDF-1 mice. Transplantation was carried out using donor mice bearing 7-day tumor growths; experimental details are described in Agrawal et al., J. Med. Chem., 11, 700, 1968, incorporated herein by reference. Mice were weighed during the course of the experiments, and the percentage change in body weight from the onset to termination of therapy was used as an indication of host toxicity.

[3] = system: L1210 leukemia; assay: Survival time of mice bearing the L1210 leukemia; format: in vivo, mouse (CDF-1 mice); conditions: for Av. Change wt. %: L1210 mice; for Antineoplastic Activity (max. % T/C from Table III): Table II, L1210 leukemia; for activity against the L1210 leukemia (in words): mouse, in vivo
Text: The ascites cell forms of the L1210 leukemia, Sarcoma 180 and P388 leukemia were propagated in CDF-1 mice. […] Mice were weighed during the course of the experiments, and the percentage change in body weight from the onset to termination of therapy was used as an indication of host toxicity.
Each value represents the average of 5 animals per group.

[4] = Alkylation of 4-(4-nitrobenzyl)pyridine, absorbance at 540 nm (modified Wheeler and Chumley); conditions: for Relative Alkylating Activity: (O.D. test sample/O.D. compound 8) × 100, pH 7.4, 37°C, 540 nm
Protocol: Since compounds 1-13 were conceived as prodrugs of the alkylating species (II), representative compounds of this class, viz. 1-6, 8 and 10 were tested for alkylating ability using a modification of the method of Wheeler and Chumley. This method measured the absorbance at 540 nm of the alkylated product of 4-(4-nitrobenzyl)pyridine.
^a A solution of the test sample (12 micromoles) in 1 ml of acetone,
ml of distilled water and 1 ml of TrisHCl buffer (pH 7.4) was incubated
with 4(4-nitrobenzyl) pyridine (148 micromoles in 0.4 ml of acetone) for
hr at 37°C. Following additon of 2 ml of acetone and 1.5 ml of 0.2
M NaOH, the material was extracted with 5 ml of ethyl acetate. The
absorbance was determined at 540 nm 30 seconds after the addition of the
sodium hydroxide solution. The greater the absorbance value, the greater
the degree of alkylation
^b Relative Alkylating activity = (O.D. for test sample/O.D. for […]

[5] = system: P388 leukemia; assay: Survival time of mice bearing the P388 leukemia; format: in vivo, mouse (CDF-1 mice); conditions: at 150 mg/kg
Protocol: as §1

[6] = system: B16 melanoma cells; assay: Cytotoxicity: colony-forming ability of B16 melanoma cells; format: cell-based; conditions: Mus musculus, 1 hour exposure, 12 days incubation, average of two determinations, read-out: LD50 (the source's name)
Protocol: The cytotoxicity of compounds 8 and 12 was determined by measuring their effects on the colony-forming ability of B16 melanoma cells. The cells were maintained in Eagle's minimum essential medium supplemented with 10% fetal bovine serum. To obtain exponentially growing B16 melanoma cells, a 25 cm^2 flask was inoculated with 10^5 cells for two days before addition of drug. The cell monolayer was exposed to various concentrations of compound for 1 hour. After exposure, the layer was washed twice with PBS to remove the compound. The cells were harvested with 2 mM EDTA in PBS, and 200 cells were plated on a 60 mm dish with 5 mL of medium. After incubation for 12 days, the colonies were stained with crystal violet and counted. […] The LD50 was determined from the individual dose-response curves.

[7] = 50 mg/kg once daily for six days
[8] = 100 mg/kg once daily for six days
[9] = 150 mg/kg once daily for six days
[10] = Mus musculus, 144 h, 50 mg/kg once daily for six days, L1210, read-out: % T/C
[11] = Mus musculus, 144 h, 100 mg/kg once daily for six days, L1210, read-out: % T/C
[12] = Mus musculus, 144 h, 150 mg/kg once daily for six days, L1210, read-out: % T/C
[13] = 10 mg/kg once daily for six days
[14] = 20 mg/kg once daily for six days
[15] = 30 mg/kg once daily for six days

Row | SMILES | Max. % T/C [1] | Av. Change in wt., % [1] | Average Survival Time of Treated Animals, days ± SE [3, 7] | Av. Change wt. % [3, 7] | Average Survival Time of Treated Animals, days ± SE [3, 8] | Av. Change wt. % [3, 8] | Average Survival Time of Treated Animals, days ± SE [3, 9] | Av. Change wt. % [3, 9] | response vs control in vivo at 50 mg/kg [3, 10] | response vs control in vivo at 100 mg/kg [3, 11] | response vs control in vivo at 150 mg/kg [3, 12] | Relative Alkylating Activity [4] | dosage range of activity against the B16 melanoma [1] | Antineoplastic Activity (max. % T/C from Table III) [3] | activity against the L1210 leukemia (in words) [3] | IC50 [6] | further results
1 | CN(NS(=O)(=O)c1ccccc1)S(=O)(=O)c1ccccc1 [Compound 7, N,N'-bis(benzenesulfonyl)-N-methylhydrazine] | 175 % T/C | -2.3% | 13.2 ± 0.7 days | -4.8% | 11.6 ± 0.2 days | -5.2% | 9.4 ± 0.4 days | -13.5% | 147% | 129% | 104% |  |  |  |  |  | Max. % T/C vs. Sarcoma 180 ([2]; at 100 mg/kg): 203 % T/C
2 | Cc1ccc(S(=O)(=O)NN(C)S(=O)(=O)c2ccc(C)cc2)cc1 [Compound 8, N,N'-bis (4-toluenesulfonyl)-N-methylhydrazine] | 165 % T/C | -2.7% | 14.0 ± 1.3 days | +3.7% | 13.6 ± 2.4 days | +0.8% |  |  | 147% | 143% |  | 100 | 50 to 150 mg/kg | 147 % T/C |  |  | Max. % T/C vs. Sarcoma 180 ([2]; at 50 mg/kg): 197 % T/C
3 | COc1ccc(S(=O)(=O)NN(C)S(=O)(=O)c2ccc(OC)cc2)cc1 [Compound 9, N,N'-bis (p-methoxybenzenesulfonyl)-N-methylhydrazine] | 191 % T/C | +2.4% | 13.4 ± 1.0 days | +10.9% | 13.2 ± 1.1 days | +1.9% | 12.2 ± 1.2 days | -1.6% | 149% | 147% | 136% |  |  |  |  |  | Max. % T/C vs. P388 leukemia [5]: 136 % T/C
4 | CN(NS(=O)(=O)c1ccc(Cl)cc1)S(=O)(=O)c1ccc(Cl)cc1 [Compound 10, N,N'-bis (p-chlorobenzenesulfonyl)-N-methylhydrazine] | 163 % T/C | +4.8% | 9.2 ± 0.2 days | +4.1% | 11.4 ± 0.8 days | +4.0% | 11.8 ± 1.1 days | +1.3% | 97% | 120% |  | 185 |  | 124 % T/C | virtually inactive |  | alkylating activity / absorbance (in words) [4]: highest; rate of decomposition to a reactive species (in words) [4]: rapid decomposition to a reactive species; response vs control in vivo at 150 mg/kg ([3]; Mus musculus, L1210, 144 h, read-out: % T/C): 124%
5 | Cc1ccc(S(=O)(=O)N(C)NS(C)(=O)=O)cc1 [Compound 12] | 207 % T/C | -1.9% |  |  |  |  |  |  |  |  |  |  | 10 to 30 mg/kg |  | high level of activity against the L1210 leukemia | 0.62 µM | % T/C ([1]; B16, daily dosage of 10 mg/kg (Table IV footnote d)): 206 % T/C; % T/C ([1]; B16, daily dosage of 20 mg/kg (Table IV footnote d)): 206 % T/C; toxicity at higher dosage levels (in words) ([1]; above 10-30 mg/kg): toxic at higher dosage levels; Average Survival Time of Treated Animals, days ± SE [3, 13]: 14.8 ± 0.4 days; Av. Change wt. % [3, 13]: +9.1%; Average Survival Time of Treated Animals, days ± SE [3, 14]: 15.0 ± 0.7 days; Av. Change wt. % [3, 14]: -2.0%; Average Survival Time of Treated Animals, days ± SE [3, 15]: 19.2 ± 2.0 days; Av. Change wt. % [3, 15]: -7.9%; response vs control in vivo at 10 mg/kg ([3]; Mus musculus, 144 h, 10 mg/kg once daily for six days, L1210, read-out: % T/C): 161%; response vs control in vivo at 20 mg/kg ([3]; Mus musculus, 144 h, 20 mg/kg once daily for six days, L1210, read-out: % T/C): 163%; response vs control in vivo at 30 mg/kg ([3]; Mus musculus, 144 h, 30 mg/kg once daily for six days, L1210, read-out: % T/C): 209%
6 | CCS(=O)(=O)NN(C)S(=O)(=O)c1ccc(C)cc1 [Compound 13] | 174 % T/C | -1.1% |  |  |  |  |  |  |  |  |  |  |  |  |  | 0.16 µM | activity against the B16 melanoma (in words) ([1]; mouse, in vivo): appreciable levels of activity against the B16 melanoma
